Tests used:
[1] = tested on: H1650 human non-small cell lung carcinoma (NSCLC) model; assay: In vivo efficacy of EGFR2-Bcl-xL inhibitor ADC in combination with docetaxel, H1650 xenografts (Example 15); parameters: species or system female SCID mice; conditions: Vehicle iv + docetaxel 7.5 mg/kg qdx1 iv 24 h later
Protocol: H1650 cells were cultured at 37° C. in an atmosphere of 5% CO2 in air in RPMI1640 (BioConcept Ltd. Amimed, #1-41F01-1) supplemented with 10% FCS (BioConcept Ltd. Amimed, #2-01F30-1), 2 mM L-glutamine (BioConcept Ltd. Amimed, #5-10K00-H) and 1 mM sodium pyruvate (BioConcept Ltd. Amimed, #5-60F00-H), 10 mM HEPES (Gibco #11560496) and D-glucose 1.25g/500 mL medium (Gibco, #A24940-01). To establish H1650 xenografts, cells were harvested and re-suspended in HBSS (Gibco, #14175)/Matrigel (Corning #354234) (1:1 v/v) before injecting 100 μL containing 5×10^6 cells subcutaneously in the flanks of female SCID mice (Taconic, Europe). Tumor growth was monitored regularly post cell inoculation and animals were randomized into treatment groups (n=6) with a mean tumor volume of about 150 mm^3. The ADCs were administered intravenously (i.v.) once at the start of treatment at 30 mg/kg in combination with 7.5 mg/kg docetaxel (Zentiva: 1 ml/20 mg) which was administered i.v. once 24 h after the ADCs. Doses were adjusted to individual mouse body weights. The i.v. dose volume was 10 ml/kg and each ADC was dissolved in 0.9% (w/v) NaCl in water and the docetaxel stock solution was diluted to appropriate concentration with 5% (w/v) sterile glucose solution prior to administration.
Tumor volume data on day 21 and 28 post treatment initiation were analyzed for statistical difference relative to vehicle control group and EGFR-Bcl-xLi (L109A-P1) ADC, using one way ANOVA post hoc Tukey's multiple comparisons test (Indigo Software). Results are presented as mean±SEM.
As a measure of efficacy the %T/C value was calculated on day 21 according to:
(Δtumor volume treated/Δtumor volume control)*100 Tumor regression was calculated according to:
−(Δtumor volume treated/tumor volume treated at start)*100
Where Δtumor volumes represent the mean tumor volume on the evaluation day minus the mean tumor volume at the start of the experiment.

EBC-1 xenografts = assay: In vivo testing of EpCAM ADCs with paclitaxel, EBC-1 xenografts (Example 17); parameters: species or system female nude mice; conditions: Paclitaxel Alone
Protocol: EBC-1 cells were cultured at 37° C. (atmosphere of 5% CO2) in DMEM (Gibco 11965-084) supplemented with 10% FBS (HI-FBS #134K19, Tet-free). Treatment with 0.25% Trypsin (Gibco 25200-056) was used for sub-culturing. To establish EBC-1 xenografts, cells were harvested and re-suspended in a 1:1 v/v mixture of phosphate buffered saline and Matrigel. A total of 5×10^6 cells in a volume of 150 μL were injected subcutaneously in the flanks of female nude mice (Charles River, USA). Tumor growth was monitored regularly post cell inoculation and animals were randomized into treatment groups (n=8) with a mean tumor volume of about 210 mm^3. EpCAM-DANAPA-L11C-P25 ADC, 3207-DANAPA-L11C-P25 isotype control ADC, and EpCAM-DANAPA CysMab control antibody were all dosed in combination with paclitaxel (LC Laboratories, Woburn, MA, Cat #: P-9600) as indicated in FIG. 13. The ADCs and CysMab antibody were administered intravenously (i.v.) once at the start of treatment at 30 mg/kg. Paclitaxel was administered i.v. once at 12.5 mg/kg, 24 h after the ADC or CysMab dose. All reagents were dosed at 10 mL/kg based on the individual mouse body weight. The ADCs and CysMab were formulated at 3 mg/mL in PBS on the day of treatment. Paclitaxel was reconstituted in 50% Ethanol+50% Cremophor EL (Kolliphor EL) at a concentration of 6 mg/mL, and then further diluted to 1.25 mg/mL with sterile saline prior to administration on the day of treatment.
Tumor volume data were analyzed for statistical difference relative to the EpCAM-DANAPA-L 11C-P25 ADC+ paclitaxel combination group. Unpaired two-tailed T-tests were used to make comparisons between groups.
As a measure of efficacy, %T/C values were calculated according to the formula: […]
Tumor regression was calculated according to the formula: […]
Δtumor volumes represent mean tumor volumes on the measurement day minus the mean tumor volume at the start of treatment. The Δtumor volume control value specified above refers to mean tumor volume changes in the vehicle group.

Row | SMILES | Response on day 21 T/C (%) ([1]; day 21) | ΔTumor volume (mm^3) D21 ([1]; day 21, mean) | Maximum regression (day) ([1]; maximum on D7) | Significance On D21 vs Isotype-DANAPA-L109A-P1-ADC group ([1]; vs IgG CysMab DANAPA-L109A-P1 ADC + docetaxel, printed with (growth)) | % T/C (Day of Evaluation) (EBC-1 xenografts; Day 10) | ΔTumor volume (mm^3 ± SEM) (Day of Evaluation) (EBC-1 xenografts; Day 10) | Significance vs EpCAM-DANAPA-L11C-P25 ADC on Day 9 (Day of Evaluation) (EBC-1 xenografts; Day 10, unpaired two-tailed T-test vs EpCAM-DANAPA-L11C-P25 ADC + paclitaxel group) | Complete Responders (Day of Evaluation) (EBC-1 xenografts; Day 32, tumors regressed to 0 mm^3)
1 | CC(=O)O[C@@]12CO[C@@H]1C[C@H](O)[C@@]1(C)C(=O)[C@H](O)C3=C(C)[C@@H](OC(=O)[C@H](O)[C@@H](NC(=O)OC(C)(C)C)c4ccccc4)C[C@@](O)([C@@H](OC(=O)c4ccccc4)[C@H]21)C3(C)C [docetaxel] | 51% | 396.59 mm^3 | −1 | P < 0.05 (growth) | – | – | – | –
2 | CC(=O)O[C@H]1C(=O)[C@@]2(C)[C@H]([C@H](OC(=O)c3ccccc3)[C@]3(O)C[C@H](OC(=O)[C@H](O)[C@@H](NC(=O)c4ccccc4)c4ccccc4)C(C)=C1C3(C)C)[C@]1(OC(C)=O)CO[C@@H]1C[C@@H]2O [Paclitaxel, paclitaxel] | – | – | – | – | 34% | 510.8 ± 158.5 mm^3 | P = 0.0014 | 0/8

From patent US20240269304A1, “BCL-XL INHIBITOR ANTIBODY-DRUG CONJUGATES AND METHODS OF USE THEREOF” (Novartis AG, priority 2020, published 2024)
